“Also recorded” adds a separate entry of the source.
Key:
[1] = tested on: CD8+ T cells; experiment: CD8 T cell activation (CD69) and degranulation (CD107a) after two-day in vivo treatment; set-up: species or system mice
Procedure: FIGS. 3B-3E show activation of NK cells and T cells following exposure to the SHIP1 inhibitor 3AC in vivo. NK cells from two-day 3AC- or vehicle-treated mice were stimulated by incubation on uncoated plates, on plates coated with anti-NK1.1, anti-NKp46, or anti-NKG2D antibody, or on uncoated plates but in the presence of PMA and ionomycin. Representative flow plots (FIG. 3B) and box and whisker plots (FIG. 3C) show the frequency of NK cell production of IFNγ determined by intracellular flow cytometry. […] Anti-CD107a (LAMP-1) PE antibody was added for the final 5 hours of incubation. Degranulation of CD8+ T cells was determined by analysis of CD107a expression by flow cytometry. NK cells are defined as NK1.1+CD3ε− and CD8+ T cells as NK1.1-CD3ε+CD8+CD4−. Graphs are representative of at least two independent experiments with at least four 3AC- and vehicle-treated mice per group (FIGS. 3B-3C) or pooled data from two independent experiments is shown (FIGS. 3D-3F). FIG. 3C (unstim: n=4, p=0.0962, Unpaired t test with Welch's correction. NK1.1: n=4, p=0.0038, Two-tailed student's T test. NKG2D: n=4, p=0.0450, Two-tailed student's T test. NKp46: n=4, p=0.0144, Two-tailed student's T test. PMA: p=0.2945, Two-tailed student's T test). FIG. 3D (n=8, p=0.0153, Unpaired T test with Welch's correction). FIG. 3E (n=8, p=0.0009, Two-tailed student's T test) FIG. 3F (n=9, p=0.0083, Two-tailed student's T test).
To determine if SHIP inhibitors are also capable of activating the other major type of cytotoxic lymphocyte the responsiveness of CD8 T cells following the same, short-term, 3AC treatment was examined.

[2] = tested on: RMA-Rael cells; experiment: RMA-Rael viability following in vitro treatment; assay type: cell-based, mice; details: 24 h, doses given as 5-20 pM, vs solvent only
From the text: FIGS. 5A-5I show the effects of SHIP1 inhibitor as a chemotherapeutic. […] FIG. 5D and FIG. 5E show the representative histograms and box-and-whisker plots of FasL expression by NK cells from C56BL/6 (p=0.0002; Unpaired t test with Welch's correction) or RAG1−/− (p<0.0001; Mann-Whitney U test) tumor challenged, SHIP inhibitor or vehicle treated hosts. […] (NK cells p=0.0192; Unpaired t test with Welch's correction. T cells p=0.0659; Mann-Whitney U test). Additionally, FIGS. 5A-5G show the analysis by flow cytometry on day 3 after hosts receive SHIP inhibitor or vehicle for two consecutive days. NK cells are defined as NK1.1+CD3ε−. The graphs are representative of at least two independent experiments with at least four SHIP inhibitor and vehicle treated mice. […] Viability is expressed as frequency at a given concentration expressed as a percentage of solvent only treated cells. The kill curve summarizes pooled data from three independent experiments using six replicate wells/concentration with mean ±SEM indicated (n=18 per group. One-way ANOVA with Dunnett's multiple comparisons. 0 pM vs. 20 pM Adjusted p value =0.0001. 0 pM vs. 15 pM Adjusted p value =0.0001. 0 pM vs. 10 pM Adjusted p value =0.0001. 0 pM vs. 7.5 pM Adjusted p value =0.0001. 0 pM vs. 5 pM Adjusted p value =0.0001). […]

[3] = splenic CD8+ T cells, two-day 3AC vs vehicle

CC(C)CCC[C@@H](C)[C@H]1CC[C@H]2[C@@H]3CCC4C[C@H](N)CC[C@]4(C)[C@H]3CC[C@]12C (stereo partly drawn) [Compound 3AC, 3-α-aminocholestane]
percentage of activated CD8 T cells (CD69 expression) [1, 3]: significantly increased | surface expression of CD69 amongst CD8 T cells [1, 3]: increased | LAMP-1 (CD107a) expression of CD8 T cells (degranulation) ([1]; splenic CD8 T cells, crosslinking of TcR and CD28 (anti-CD3, anti-CD28) overnight): increased frequency | RMA-Rael viability (direct killing) [2]: capable of directly killing RMA-Rael cells; also recorded: cytotoxic

Source: patent US11952328B2, “Selective ship inhibitors for treating disease” (THE RESEARCH FOUNDATION FOR THE STATE UNIVERSITY OF NEW YORK, priority 2018, dated 2024)
